Assay results published in PubChem BioAssay AID1259407 (Chemical Carcinogenesis Research Information System (CCRIS), 2018).
Calls of active or inactive are those of the source. The rule behind the calls is not given here.

System: CCRIS mutagenicity, Ames/micronucleus/aberration tests
Assay: CCRIS mutagenicity studies

Measured: mutagenic call

CCN(N=O)c1ccccc1
inactive: Test System: AMES SALMONELLA TYPHIMURIUM, Strain/Indicator: TA1537, Metabolic Activation: HAMSTER, LIVER, S-9, AROCLOR 1254, Method: PREINCUBATION inactive; negative | Test System: AMES SALMONELLA TYPHIMURIUM, Strain/Indicator: TA1537, Metabolic Activation: HAMSTER, LIVER, S-9, AROCLOR 1254, Method: STANDARD PLATE inactive; negative | Test System: AMES SALMONELLA TYPHIMURIUM, Strain/Indicator: TA1537, Metabolic Activation: HAMSTER, LIVER, S-9, Method: PREINCUBATION inactive; negative | Test System: AMES SALMONELLA TYPHIMURIUM, Strain/Indicator: TA1537, Metabolic Activation: HAMSTER, LIVER, S-9, Method: STANDARD PLATE inactive; negative | Test System: AMES SALMONELLA TYPHIMURIUM, Strain/Indicator: TA1537, Metabolic Activation: MOUSE, LIVER, S-9, AROCLOR 1254, Method: PREINCUBATION inactive; negative | Test System: AMES SALMONELLA TYPHIMURIUM, Strain/Indicator: TA1537, Metabolic Activation: MOUSE, LIVER, S-9, AROCLOR 1254, Method: STANDARD PLATE inactive; negative | Test System: AMES SALMONELLA TYPHIMURIUM, Strain/Indicator: TA1537, Metabolic Activation: MOUSE, LIVER, S-9, Method: PREINCUBATION inactive; negative | Test System: AMES SALMONELLA TYPHIMURIUM, Strain/Indicator: TA1537, Metabolic Activation: MOUSE, LIVER, S-9, Method: STANDARD PLATE inactive; negative | Test System: AMES SALMONELLA TYPHIMURIUM, Strain/Indicator: TA1537, Metabolic Activation: NONE, Method: PREINCUBATION inactive; negative | Test System: AMES SALMONELLA TYPHIMURIUM, Strain/Indicator: TA1537, Metabolic Activation: NONE, Method: STANDARD PLATE inactive; negative | Test System: AMES SALMONELLA TYPHIMURIUM, Strain/Indicator: TA1537, Metabolic Activation: RAT, LIVER, S-9, AROCLOR 1254, Method: PREINCUBATION inactive; negative | Test System: AMES SALMONELLA TYPHIMURIUM, Strain/Indicator: TA1537, Metabolic Activation: RAT, LIVER, S-9, AROCLOR 1254, Method: STANDARD PLATE inactive; negative | Test System: AMES SALMONELLA TYPHIMURIUM, Strain/Indicator: TA1537, Metabolic Activation: RAT, LIVER, S-9, Method: PREINCUBATION inactive; negative | Test System: AMES SALMONELLA TYPHIMURIUM, Strain/Indicator: TA1537, Metabolic Activation: RAT, LIVER, S-9, Method: STANDARD PLATE inactive; negative | Test System: AMES SALMONELLA TYPHIMURIUM, Strain/Indicator: TA1538, Metabolic Activation: HAMSTER, LIVER, S-9, AROCLOR 1254, Method: PREINCUBATION inactive; negative | Test System: AMES SALMONELLA TYPHIMURIUM, Strain/Indicator: TA1538, Metabolic Activation: HAMSTER, LIVER, S-9, AROCLOR 1254, Method: STANDARD PLATE inactive; negative | Test System: AMES SALMONELLA TYPHIMURIUM, Strain/Indicator: TA1538, Metabolic Activation: HAMSTER, LIVER, S-9, Method: PREINCUBATION inactive; negative | Test System: AMES SALMONELLA TYPHIMURIUM, Strain/Indicator: TA1538, Metabolic Activation: HAMSTER, LIVER, S-9, Method: STANDARD PLATE inactive; negative | Test System: AMES SALMONELLA TYPHIMURIUM, Strain/Indicator: TA1538, Metabolic Activation: MOUSE, LIVER, S-9, AROCLOR 1254, Method: PREINCUBATION inactive; negative | Test System: AMES SALMONELLA TYPHIMURIUM, Strain/Indicator: TA1538, Metabolic Activation: MOUSE, LIVER, S-9, AROCLOR 1254, Method: STANDARD PLATE inactive; negative | Test System: AMES SALMONELLA TYPHIMURIUM, Strain/Indicator: TA1538, Metabolic Activation: MOUSE, LIVER, S-9, Method: PREINCUBATION inactive; negative | Test System: AMES SALMONELLA TYPHIMURIUM, Strain/Indicator: TA1538, Metabolic Activation: MOUSE, LIVER, S-9, Method: STANDARD PLATE inactive; negative | Test System: AMES SALMONELLA TYPHIMURIUM, Strain/Indicator: TA1538, Metabolic Activation: NONE, Method: PREINCUBATION inactive; negative | Test System: AMES SALMONELLA TYPHIMURIUM, Strain/Indicator: TA1538, Metabolic Activation: NONE, Method: STANDARD PLATE inactive; negative | Test System: AMES SALMONELLA TYPHIMURIUM, Strain/Indicator: TA1538, Metabolic Activation: RAT, LIVER, S-9, AROCLOR 1254, Method: PREINCUBATION inactive; negative | Test System: AMES SALMONELLA TYPHIMURIUM, Strain/Indicator: TA1538, Metabolic Activation: RAT, LIVER, S-9, AROCLOR 1254, Method: STANDARD PLATE inactive; negative | Test System: AMES SALMONELLA TYPHIMURIUM, Strain/Indicator: TA1538, Metabolic Activation: RAT, LIVER, S-9, Method: PREINCUBATION inactive; negative | Test System: AMES SALMONELLA TYPHIMURIUM, Strain/Indicator: TA1538, Metabolic Activation: RAT, LIVER, S-9, Method: STANDARD PLATE inactive; negative | Test System: E. COLI, Strain/Indicator: WP2 UVRA, Metabolic Activation: HAMSTER, LIVER, S-9, AROCLOR 1254, Method: PREINCUBATION inactive; negative | Test System: E. COLI, Strain/Indicator: WP2 UVRA, Metabolic Activation: HAMSTER, LIVER, S-9, AROCLOR 1254, Method: STANDARD PLATE inactive; negative | Test System: E. COLI, Strain/Indicator: WP2 UVRA, Metabolic Activation: HAMSTER, LIVER, S-9, Method: PREINCUBATION inactive; negative | Test System: E. COLI, Strain/Indicator: WP2 UVRA, Metabolic Activation: HAMSTER, LIVER, S-9, Method: STANDARD PLATE inactive; negative | Test System: E. COLI, Strain/Indicator: WP2 UVRA, Metabolic Activation: MOUSE, LIVER, S-9, AROCLOR 1254, Method: PREINCUBATION inactive; negative | Test System: E. COLI, Strain/Indicator: WP2 UVRA, Metabolic Activation: MOUSE, LIVER, S-9, AROCLOR 1254, Method: STANDARD PLATE inactive; negative | Test System: E. COLI, Strain/Indicator: WP2 UVRA, Metabolic Activation: MOUSE, LIVER, S-9, Method: PREINCUBATION inactive; negative | Test System: E. COLI, Strain/Indicator: WP2 UVRA, Metabolic Activation: MOUSE, LIVER, S-9, Method: STANDARD PLATE inactive; negative | Test System: E. COLI, Strain/Indicator: WP2 UVRA, Metabolic Activation: NONE, Method: PREINCUBATION inactive; negative | Test System: E. COLI, Strain/Indicator: WP2 UVRA, Metabolic Activation: NONE, Method: STANDARD PLATE inactive; negative | Test System: E. COLI, Strain/Indicator: WP2 UVRA, Metabolic Activation: RAT, LIVER, S-9, AROCLOR 1254, Method: PREINCUBATION inactive; negative | Test System: E. COLI, Strain/Indicator: WP2 UVRA, Metabolic Activation: RAT, LIVER, S-9, AROCLOR 1254, Method: STANDARD PLATE inactive; negative | Test System: E. COLI, Strain/Indicator: WP2 UVRA, Metabolic Activation: RAT, LIVER, S-9, Method: PREINCUBATION inactive; negative | Test System: E. COLI, Strain/Indicator: WP2 UVRA, Metabolic Activation: RAT, LIVER, S-9, Method: STANDARD PLATE inactive; negative
